The assay in a line: Compound was evaluated for its inhibitory activity against porcine pancreatic elastase (PPE).

Non-standard residues stand in square brackets, D forms with d. Residues, ends and D or L forms follow the SMILES beside them. *: point of attachment. Hyp = O=C(O)[C@@H]1C[C@@H](O)CN1; Chg = N[C@H](C(=O)O)C1CCCCC1; Nva = CCC[C@H](N)C(=O)O; X1 = c1ccc2cc(C*)ccc2c1 Where only a bound is given, the exact number is not on record here.

The values that follow come from BindingDB's records for doi:10.1016/s0960-894x(00)00465-0 (Boehringer Ingelheim Pharmaceuticals, 2001).

Broadly, the IC50 is the concentration at which inhibition is half-maximal. The compound `CCC[C@H](NC(=O)[C@@H]1C[C@@H](OCc2ccc3ccccc3c2)CN1C(=O)[C@@H](NC(=O)[C@@H](NC(=O)[C@@H](CCC(=O)O)NC(=O)[C@H](CC(=O)O)NC(C)=O)C1CCCCC1)C(C)C)C(=O)O` [(S)-2-{[(2S,4R)-1-((S)-2-{(S)-2-[(R)-2-((S)-2-Acetylamino-3-carboxy-propionylamino)-4-carboxy-butyrylamino]-2-cyclohexyl-acetylamino}-3-methyl-butyryl)-4-(naphthalen-2-ylmethoxy)-pyrrolidine-2-carbonyl]-amino}-pentanoic acid] (Ac-D[dE][Chg]V[Hyp](X1)[Nva]-OH) registered an IC50 above 300 µM.
